ChEMBL document CHEMBL1156814, “Highly suppressing wild-type HIV-1 and Y181C mutant HIV-1 strains by 10-chloromethyl-11-demethyl-12-oxo-calanolide A with druggable profile” (J Med Chem, 2010)

Assays:
[1] = test system: Human immunodeficiency virus 1; test: Antiviral activity against 100 TCID50 HIV1 infected in human TZM-b1 cells assessed as inhibition of viral replication by pseudovirus based assay; format: functional, organism-based
[2] = Toxicity in human TZM-b1 cells; format: cell-based
[3] = Selectivity index, ratio of IC50 for African green monkey Vero cells to EC50 for HIV1; format: toxicity, cell-based; conditions: read-out: Selectivity Index
[4] = Toxicity in African green monkey Vero cells; format: cell-based; conditions: chlorocebus sabaeus
[5] = Human immunodeficiency virus 1, TZM-b1, read-out: EC50

CCCc1cc(=O)oc2c3c(c4c(c12)OC(C)(C)C=C4)OC(CN(C)C)CC3=O (stereo not drawn)
EC50 ([1]; tzm-b1): Not Active

CCCc1cc(=O)oc2c3c(c4c(c12)OC(C)(C)C=C4)OC(CN=[N+]=[N-])CC3=O (stereo not drawn) [1'-AZIDEMETHYL-11-DEMETHYL-12-OXO-CALANOLIDE A]
EC50 ([1]; tzm-b1): Not Active | Activity [2]: Toxic

CCCc1cc(=O)oc2c3c(c4c(c12)OC(C)(C)C=C4)OC(CNC(=O)Nc1ccc(F)cc1)CC3=O (stereo not drawn)
EC50 ([1]; tzm-b1): Not Active

CCCc1cc(=O)oc2c3c(c4c(c12)OC(C)(C)C=C4)OC(CNS(=O)(=O)c1ccc(OC)cc1)CC3=O (stereo not drawn)
EC50 ([1]; tzm-b1): Not Active

CCCc1cc(=O)oc2c3c(c4c(c12)OC(C)(C)C=C4)OC(CN1CCCCC1)CC3=O (stereo not drawn)
EC50 ([1]; tzm-b1): Not Active

CCCc1cc(=O)oc2c3c(c4c(c12)OC(C)(C)C=C4)OC(COC)CC3=O (stereo not drawn)
selectivity ratio [3]: 39.7 | CC50 [4]: 9.89 µM | EC50 [1, 5]: 0.18 µM

CCCc1cc(=O)oc2c3c(c4c(c12)OC(C)(C)C=C4)OC(CNS(=O)(=O)c1ccc(NC(C)=O)cc1)CC3=O (stereo not drawn)
EC50 ([1]; tzm-b1): Not Active

CCCc1cc(=O)oc2c3c(c4c(c12)OC(C)(C)C=C4)OC(C(F)(F)F)CC3=O (stereo not drawn)
EC50 [1, 5]: 14.9 µM

CCCc1cc(=O)oc2c3c(c4c(c12)OC(C)(C)C=C4)OC(C[S+](C)[O-])CC3=O (stereo not drawn)
EC50 [1, 5]: 14.4 µM

CCCc1cc(=O)oc2c3c(c4c(c12)OC(C)(C)C=C4)OC(CN)CC3=O (stereo not drawn) [1'-AMINEMETHYL-11-DEMETHYL-12-OXO-CALANOLIDE A]
EC50 ([1]; tzm-b1): Not Active
